Data set [1] is described as follows: Water content of lyophilized formulation / crystalline form. It is filed as physicochemical. To be noted: neat crystalline form as obtained after lyophilization, no bulking agent. The procedure: The secondary drying phase is the final segment of the lyophilization cycle, where residual moisture is removed from a formulation's interstitial matrix by desorption with elevated temperatures and/or reduced pressures. The final moisture content of a lyophilized formulation, which can be measured by Karl Fischer or other methods, is important because if the solid cake contains too much residual moisture, the stability of the active can be compromised.
Chemical stability is tested for both example 1 & it's corresponding placebo formulation by storing the lyophilized vials under various conditions: 25° C. and 60% relative humidity (“A”); 40° C. and 75% relative humidity (“B”); and 60° (“C”); for one month. Impurity analyses are done before storage (“Initial”) and after storage, and are expressed as percentages of the label 5-azacytidine content.

For data set [2] the following is noted: cited from earlier work.

SMILES strings stand for the structures. Like-named read-outs stand apart in the source and are kept apart here.

Compound `Nc1ncn([C@@H]2O[C@H](CO)[C@@H](O)[C@H]2O)c(=O)n1` [Crystalline 5-Azacytidine Form-SA-2, 5-Azacytidine] displayed a Water content in data set [1] of 0.7 % w/w.

In data set [1], `Nc1ncn([C@@H]2O[C@H](CO)[C@@H](O)[C@H]2O)c(=O)n1` [Crystalline 5-Azacytidine Form-SA-1, 5-Azacytidine] returned a Water content of 0.6 % w/w.

Regarding `Nc1ncn([C@@H]2O[C@H](CO)[C@@H](O)[C@H]2O)c(=O)n1` [5-azacytidine, 4-amino-1-β-D-ribofuranosyl-1,3,5-triazin-2(1H)-one], the Solubility entry in data set [2] (5% Tween 80 in water) is “sparingly soluble”; in data set [2] (5% dextrose in water) it was “sparingly soluble”; in data set [2] (N-methylpyrrolidone), “sparingly soluble”; in data set [2] (acetone), “insoluble”; in data set [2] (dimethylsulfoxide (DMSO)), “soluble”; in data set [2] (ethanol and water (50:50)), “slightly soluble”. The Solubility result in data set [2] (ethanol) is recorded as “insoluble”; in data set [2] (methyl ethyl ketone), “insoluble”; in data set [2] (normal saline), “sparingly soluble”; in data set [2] (polyethylene glycol) it was “slightly soluble”; in data set [2] (propylene glycol), “slightly soluble”; in data set [2] (water saturated octanol), “sparingly soluble”. For the same compound, the Solubility entry in data set [2] (water) is on record as “sparingly soluble”.

These data come from patent US9765108B2 (SHILPA MEDICARE LIMITED, priority 2012, dated 2017).
